Legend:
human TREK-1 channel = assay: Whole cell patch clamp of transiently transfected COS cells expressing human TREK-1; type: cell-based
Text: The functional properties of the human TREK-1 channel were studied on the basis of transfected COS cells temporarily expressing the protein. Like the murine channel, the human channel is selective for potassium and is activated by cis-unsaturated fatty acids, volatile anesthetics and by stretching of the plasma membrane. The currents are recordings in the whole-cell configuration of the patch-clamp technique (imposed potential gradient from -130 to +100 mV). The inverse potential of the currents follow the equilibrium potential of potassium when the extracellular concentration of potassium ions climbs from 5 to 155 mM. […] When a pressure of -66 mmHg is applied on the membrane, the TREK-1 currents are activated in a reversible manner.
(§1) Subsequently, data were replayed and sampled using pClamp software.

Mouse TREK-1 = settings: whole cell, voltage ramp from holding potential -80 mV, room temperature; 0.8 mM chloroform, 1 mM halothane, 2 mM isoflurane, 0.6 mM diethyl ether (Figs. 1-3)
Experimental: (§2) As performed herein, COS cells were seeded at a density of 20,000 cells per 35 mm dish 24 hours prior to transfection. Cells were transfected by the DEAE dextran protocol (1 µg DNA per plate). Mouse TREK-1 (GenBank Accession No. U73488), human TASK (GenBank Accession No. AF006823) and mouse TRAAK (GenBank Accession No. AF056492) fragments were amplified by polymerase chain reaction (PCR) and subcloned into the pIRES-CD8 vector. Transfected cells were visualized 48 hours after transfection using the anti-CD8 antibody coated beads method. For whole cell and excised patch experiments, the internal solution was 150 mM KCl, 3 mM MgCl2, 5mM EGTA and 10 mM HEPES at pH 7.2 with KOH and the external medium contained 150 mM NaCl, 5 mM KCL, 3 mM MgCl2, 1 mM CaCl2, 10 mM HEPES at pH 7.4 with NaOH. Cells were continuously superfused with a microperfusion system during the time course of the experiments (0.1 ml/min) performed at room temperature. A RK300 patch clamp amplifier (Biologic, Grenoble, France) was used for whole cell as well as single channel recordings. Ionic currents were monitored and recorded continuously using a DAT recorder (Biologic, Grenoble, France). Subsequently, data were replayed and sampled using pClamp software. Data analysis were performed using clampfit (pClamp) for whole cell recording as well as Biopatch (Biologic) software for single channel recordings. Membrane capacitance was measured during a […] hyperpolarizing step from a holding potential of -80 mV.
(§3) General anesthetics were directly dissolved in saline solutions. All experiments were performed at room temperature (24°C). Solutions were prepared every 3 hours in gas-tight bottles as stock solutions (calculated concentrations of 5 10 mM). Serial dilutions were prepared just prior to the electrophysiological experiment. 2.5 ml of each experimental solution at the desired concentration was placed in a syringe connected to the experimental superfusion system. The electrophysiological measurements were performed within 45 minutes.
(§4) The actual concentrations of anesthetics were subsequently determined by means of a gas chromatography method (HP 6890 equipped with a DB624 column) using FID detection. Sampled (2.5 ml of solution) were collected prior to (t0) and after perfusion (t45) through the experimental setup. Solutions were collected using gas impermeable tubing and stored in sealed glass containers at 4°C for subsequent analysis. Samplings and measurements were performed in duplicate. […] In the dose effect curves, the threshold concentrations were estimated as concentrations producing an increase higher than 10% in current amplitude.

human TASK = settings: whole cell, voltage ramp from holding potential -80 mV, room temperature; 0.8 mM chloroform, 1 mM halothane, 2 mM isoflurane, 0.6 mM diethyl ether (Figs. 1-3)
Experimental: as §2, §3, §4

mouse TRAAK = assay: Whole cell patch clamp of transfected COS cells expressing TRAAK; type: cell-based; settings: voltage ramp from holding potential -80 mV, room temperature, 0.8 mM chloroform, 1 mM halothane, 2 mM isoflurane, 0.6 mM diethyl ether (Figs. 1-3)
Experimental: as §1
General anesthetics were directly dissolved in saline solutions. All experiments were performed at room temperature (24°C). […] The electrophysiological measurements were performed within 45 minutes.
as §4

[1] = tested on: COS cells expressing TREK-1; settings: 0.8 mM chloroform; not in mock-transfected cells, n = 5
Experimental: As performed herein, COS cells were seeded at a density of 20,000 cells per 35 mm dish 24 hours prior to transfection. Cells were transfected by the DEAE dextran protocol (1 µg DNA per plate). […] Transfected cells were visualized 48 hours after transfection using the anti-CD8 antibody coated beads method. For whole cell and excised patch experiments, the internal solution was 150 mM KCl, 3 mM MgCl2, 5mM EGTA and 10 mM HEPES at pH 7.2 with KOH and the external medium contained 150 mM NaCl, 5 mM KCL, 3 mM MgCl2, 1 mM CaCl2, 10 mM HEPES at pH 7.4 with NaOH. Cells were continuously superfused with a microperfusion system during the time course of the experiments (0.1 ml/min) performed at room temperature. A RK300 patch clamp amplifier (Biologic, Grenoble, France) was used for whole cell as well as single channel recordings. Ionic currents were monitored and recorded continuously using a DAT recorder (Biologic, Grenoble, France). Subsequently, data were replayed and sampled using pClamp software. […] Membrane capacitance was measured during a 10 V hyperpolarizing step from a holding potential of -80 mV. […]
General anesthetics were directly dissolved in saline solutions. […] Solutions were prepared every 3 hours in gas-tight bottles as stock solutions (calculated concentrations of 5 10 mM). […]

| Structure (SMILES) | effect on human TREK-1 currents (human TREK-1 channel; arachidonic acid 10 µM in the bath) | effect on TREK-1 K+ current (Mouse TREK-1) | effect on TASK K+ current (human TASK) | effect on TRAAK K+ current (mouse TRAAK) | effect on human TREK-1 currents (human TREK-1 channel; concentrations employed in general anesthesia) | effect on membrane potential of COS cells expressing TREK-1 [1] |
| --- | --- | --- | --- | --- | --- | --- |
| CCCCC/C=C\C/C=C\C/C=C\C/C=C\CCCC(=O)O [arachidonic acid] | induced activation |  |  |  |  |  |
| CCOCC [Diethyl ether, diethyl ether] |  | opened | decreased | did not affect |  |  |
| FC(F)(F)C(Cl)Br (stereo not drawn) [halothane] |  | opened | opened | not TRAAK, were opened | induced activation |  |
| ClC(Cl)Cl [chloroform] |  | strongly and reversibly activated | slightly depressed | did not effect |  | reversibly and reproducibly hyperpolarized |
| FC(F)OC(Cl)C(F)(F)F (stereo not drawn) [Isoflurane, isoflurane] |  | activated | activated | without altering |  |  |

From patent publication EP1144624B1, “HUMAN AND MOUSE TREK-1 POTASSIUM CHANNEL PROTEIN AND THEIR USE” (CENTRE NATIONAL DE LA RECHERCHE SCIENTIFIQUE, priority 1999, dated 2000)
